From PubChem BioAssay (NCI) come the findings set out here.

Each structure is given as a SMILES string.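 Assay format: 96-well plates, 48-hour exposure. TGI: concentration producing complete growth inhibition.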 *1 amine or outer side, *2 acyl side, *3 side chain or, on linkers, in order; H or OH if unused. Where a SMILES comes first, the peptide text is derived from it. Bridges are numbered along the chain shown (N, C = ends). Roman numbers before positions name the chains, in order. [ ]: non-standard residue; d: D form. Actinocin(9to1) = Cc1c2oc3c(C)ccc(C(=O)[*:1])c3nc-2c(C(=O)[*:2])c(N)c1=O; Hyp = O=C(O)[CH]1C[CH](O)CN1; NMeV = CN[CH](C(=O)O)C(C)C; Sar = CNCC(=O)O Bounds are passed on as bounds.

Some test systems named below: UACC-257 melanoma; XF 498 CNS; P388/ADR leukemia; SF-268 CNS; NCI-H226 lung; KM20L2 colon; DMS 273 small cell lung; M19-MEL melanoma; DLD-1 colon; HCT-15 colon; HOP-18 NSCLC; SN12K1 renal; SNB-78 CNS; DMS 114 small cell lung; LXFL 529 NSCLC; HS 578T breast.
Assay in all cases: NCI tumour cell line growth inhibition, 48 h

As for `COC(=O)[C@]1(c2ccc(N(C)C)cc2OC)C[C@@H]2CCCN(CCc3c1[nH]c1ccccc31)C2`, the TGI was determined as 39.6 µM with UACC-257 melanoma; 34.1 µM with XF 498 CNS; 47.1 µM in the test with P388/ADR leukemia; 71.2 µM in the test with SF-268 CNS; 37.6 µM with NCI-H226 lung; 32.5 µM in the test on KM20L2 colon. Further, the TGI was 45.1 µM in the test with DMS 273 small cell lung; 32.8 µM with M19-MEL melanoma; over 64.1 µM with DLD-1 colon; 46.6 µM in the test on HCT-15 colon; over 58.7 µM in the test on HOP-18 NSCLC; 34.6 µM in the test with SN12K1 renal. Also, the TGI was over 91.1 µM in the test with SNB-78 CNS and 30.9 µM in the test on DMS 114 small cell lung.

In the case of `CNC(=O)SCC(NC(=O)CCC(N)C(=O)O)C(=O)NCC(=O)O` (centres undefined), the TGI with UACC-257 melanoma, in the test on XF 498 CNS, in the test with P388/ADR leukemia, in the test with SF-268 CNS, in the test with NCI-H226 lung and in the test on KM20L2 colon was over 100 µM throughout. Besides, the TGI in the test on DMS 273 small cell lung, in the test on M19-MEL melanoma, in the test with DLD-1 colon, with HCT-15 colon, in the test on HOP-18 NSCLC and with SN12K1 renal was over 100 µM each time. The TGI with SNB-78 CNS and in the test on DMS 114 small cell lung was over 100 µM in each case.

In the case of `C=CC(C)C1(CCCOCc2ccccc2)C(=S)N2CCC3(CC24CCCC14)OCCO3` (centres undefined), the TGI with UACC-257 melanoma is over 100 µM; in the test on XF 498 CNS it was 52.7 µM; with SF-268 CNS it was over 100 µM; in the test with NCI-H226 lung it was over 100 µM; in the test on KM20L2 colon, over 100 µM; with LXFL 529 NSCLC it was over 100 µM. The TGI with DMS 273 small cell lung, with M19-MEL melanoma, in the test on DLD-1 colon, in the test on HCT-15 colon, in the test with HOP-18 NSCLC and with SNB-78 CNS was over 100 µM in each case. In the test with DMS 114 small cell lung, the TGI was over 100 µM.

For `CCOc1ccc(C(C)c2cc3c(cc2OC)OCO3)cc1` (centres undefined), the TGI was 52.8 µM in the test on UACC-257 melanoma; 0.823 µM in the test with XF 498 CNS; 45.5 µM in the test on SF-268 CNS; 0.752 µM in the test with NCI-H226 lung; 0.414 µM in the test on KM20L2 colon; over 100 µM in the test with LXFL 529 NSCLC. In addition, the TGI in the test on DMS 273 small cell lung was 11.7 µM; in the test with DLD-1 colon it was 82.5 µM; in the test with HCT-15 colon it was over 100 µM; with HOP-18 NSCLC it was over 100 µM; with SNB-78 CNS, over 100 µM; in the test on DMS 114 small cell lung, 0.85 µM.

Take `COc1cc2c(cc1Oc1c(Oc3c(O)c(OC)cc4c3C(CC(C)C)N(C)CC4)c(OC)cc3c1C(CC(C)C)N(C)CC3)C(CC(C)C)N(C)CC2` (centres undefined): the TGI was 11.5 µM in the test on UACC-257 melanoma; 3.71 µM with P388/ADR leukemia; 8.85 µM with SF-268 CNS; 2.5 µM in the test on NCI-H226 lung; 7.12 µM in the test on KM20L2 colon; 4.21 µM in the test on DMS 273 small cell lung. Besides, the TGI with M19-MEL melanoma was determined as 2.58 µM; in the test with DLD-1 colon, 14.2 µM; with HCT-15 colon it was 12.9 µM; in the test on HOP-18 NSCLC, 17.1 µM; with SN12K1 renal it was 3.79 µM; in the test on SNB-78 CNS, 4.71 µM. The TGI in the test with DMS 114 small cell lung is 6.52 µM.

As to `COC1=C(C)C(=O)C2=C(C1=O)C1C3CC4=C(C(=O)C(OC)=C(C)C4=O)C(CNC(=O)C(C)O)N3C(C#N)C(C2)N1C` (centres undefined), the TGI was 0.0102 µM in the test with UACC-257 melanoma; 0.146 µM in the test on SF-268 CNS; 0.109 µM in the test with NCI-H226 lung; 3.1 µM in the test with KM20L2 colon; under 0.01 µM in the test on HS 578T breast; under 0.0111 µM in the test with DMS 273 small cell lung. For the same compound, the TGI in the test with M19-MEL melanoma is under 0.01 µM; in the test on DLD-1 colon it was 0.372 µM; in the test on HCT-15 colon, 10.5 µM; in the test on HOP-18 NSCLC, under 0.01 µM; in the test on SN12K1 renal it was under 0.01 µM; in the test on SNB-78 CNS, 0.0863 µM. Also, the TGI with DMS 114 small cell lung was under 0.01 µM.

`O=C(c1cccs1)N1CCCN(C(=O)c2cccs2)C1=S`: the TGI with UACC-257 melanoma, with SF-268 CNS, with NCI-H226 lung, in the test with HS 578T breast and in the test on HCT-15 colon was over 100 µM throughout.

Turning to `Nn1c(=O)[nH]c2ncn(Cc3ccccc3)c2c1=O`, the TGI in the test with UACC-257 melanoma, in the test on SF-268 CNS, in the test on NCI-H226 lung, in the test with HS 578T breast and in the test with HCT-15 colon was over 100 µM throughout.

On to `COC(=O)c1ccccc1/C=C1\Cc2ccc3c(c2C1=O)CCCC3`, for which the TGI in the test with UACC-257 melanoma, with SF-268 CNS, in the test on NCI-H226 lung, with HS 578T breast and in the test with HCT-15 colon was over 100 µM in each case.

Take `c1ccc(Nc2nn3c(CCCCCCCCc4nnc5sc(Nc6ccccc6)nn45)nnc3s2)cc1`: the TGI in the test on UACC-257 melanoma, in the test on SF-268 CNS, in the test with NCI-H226 lung, with HS 578T breast and in the test with HCT-15 colon was over 100 µM throughout.

Consider `Cc1c2oc3c(C)ccc(C(=O)NC4C(=O)NC(C(C)C)C(=O)N5CC(O)CC5C(=O)N(C)CC(=O)N(C)C(C(C)C)C(=O)OC4C)c3nc-2c(C(=O)NC2C(=O)NC(C(C)C)C(=O)N3CC(O)CC3C(=O)N(C)CC(=O)N(C)C(C(C)C)C(=O)OC2C)c(N)c1=O` (centres undefined) (I: TV[Hyp][Sar][NMeV] / II: TV[Hyp][Sar][NMeV]; ester I:1-I:C, II:1-II:C; linker I:N-II:N via Actinocin(9to1); configuration not given here), for which the TGI in the test with UACC-257 melanoma, in the test on SF-268 CNS, in the test with NCI-H226 lung, in the test on HS 578T breast and in the test with HCT-15 colon was over 1 µM in each case.

As to `COc1ccc(-c2ncn(C[Si](C)(C)C)c2-c2ccc(OC)cc2)cc1`, the TGI in the test on UACC-257 melanoma was 16.7 µM; with SF-268 CNS, 28.7 µM; in the test with NCI-H226 lung, 24.5 µM; with HS 578T breast, 37.1 µM; in the test on HCT-15 colon it was 18.3 µM.
